Literature values in patent publication US20020054921A1, “Use of phyllanthus components for the treatment or prophylaxis of infections triggered by flavivirdae” (priority 2000, published 2002).

What was measured:
[1] = target: T1, cAMP-dependent protein kinase of the rat liver (Rattus norvegicus, UniProt P27791)
T1 construct: the cAMP-dependent protein kinase of the rat liver; host or cells: rat liver

[2] = tested on: Ca^2+-dependent protein kinase of the wheat embryo; conditions: wheat embryo Ca^2+-dependent protein kinase
[3] = tested on: Ca^2+ and phospholipid-dependent protein kinase C (PKC) of the rat brain
Bacillus subtilis = conditions: 0.1 ml added; extract 50 mg/ml, streptomycin 10 mg/ml
Staphylococcus aureus = conditions: 0.1 ml added; extract 50 mg/ml, streptomycin 10 mg/ml

| Compound | inhibition of protein kinase [1] | inhibition of protein kinase [2] | inhibition of protein kinase [3] | inhibition zone (Bacillus subtilis) [mm] | inhibition zone (Staphylococcus aureus) [mm] |
| --- | --- | --- | --- | --- | --- |
| geraiin | most effective | most effective | most effective | – | – |
| O=C1OC2C3OC(=O)C4=CC(=O)C5(O)Oc6c(O)c(O)cc(c6C4C5(O)O)C(=O)OC2C(OC(=O)c2cc(O)c(O)c(O)c2)OC3COC(=O)c2cc(O)c(O)c3c2C2C1=CC(=O)C(O)(O3)C2(O)O (centres unmarked) [amariin] | most effective | most effective | most effective | – | – |
| [H]/N=C(/N)N[C@H]1[C@H](O)[C@@H](O)[C@H](O[C@@H]2O[C@@H](C)[C@](O)(C=O)[C@H]2O[C@@H]2O[C@@H](CO)[C@H](O)[C@@H](O)[C@@H]2NC)[C@@H](N/C(N)=N\[H])[C@@H]1O [streptomycin] | – | – | – | 35 | 35 |
